Consider 3 molecules from patent publication US20110239327A1, “Nematicidal Effects of Cysteine Proteinases and Methods of Use Thereof to Treat Nematode Infestation” (priority 2007, published 2011).

In assay [1] the test system is M. incognita J2. Briefly: In planta bioassay, two soil applications: nematode infection of tomato roots. The class given is in vivo, M. incognita on tomato plants. Conditions: nematicide alone, no enzyme. How it is done: Oxamyl is supplied as 10% liquid Vydate. 125 μl of a solution 1000 fold dilution of 10% formulation (kindly supplied by DK from NIU) was applied to 5 g of the soil mixture with 16% organic matter, to give a partial nematicidal effect. Soil mixtures were wetted with PBS pH 7.2, 16 hrs prior nematode application of 1000 or 2000 M. incognita J2. Infected soil mixtures were treated with water (control) or 250 μM of active papain in 16 mM of L-cysteine or a combination of Vydate and 250 μM of active papain in 16 mM of L-cysteine. After 48 hs tomato seedlings one month old were added to the treated soils. After 11 days the roots were washed free of soil and chopped to approximately 2 mm pieces. The root pieces of each tomato plant was placed in muslin bags and stained with acid-fuchsin. The stained roots were examined under microscope and all the nematodes present in the roots were counted. […] After 48 hours tomato seedlings one month old were added to the treated soils and after 11 days post infection nematode development inside root tissues was assessed as described above.
The avermectins are macrocyclic lactones produced by the actinomycete Streptomyces avermitilis. […] After 48 hs tomato seedlings one month old were added to the treated soils and after 11 days post infection nematode development inside root tissues was assessed as described above. […]

The subject of assay [2] is larvae in infected soil. Conditions: cited from earlier work.
The test system of assay [3] is M. incognita J2. Briefly: In vitro assay of M. incognita J2 present in soil mixtures. The class given is cell-based. Conditions: Triton x-100 (1%), Milk (5%). How it is done: The same procedure described above was used to determine the effect of the cysteine proteinases against M. incognita J2 present in soil mixtures. The following soil mixtures were used: fine and coarse sand, peat and fine/coarse sand and loam mix and fine/coarse sand. These soil mixtures were prepared at concentrations of 1:1, 1:3 and 1:6 and autoclaved at […] for 20 min. Peat and loam-mix were obtained from Rothamsted-Research. Soil mixtures were added to 24 well plates (0.5 g) and wetted for 16 hs with either PBS ph 7.2, Tx-100, Milk 5% or cysteine proteinases, in order to wet the soil and block non-specific binding sites present in the soil particles. Then, approximately 100 J2 were added to the wells, followed by cysteine proteinases with 16 mM of L-cysteine to activate the cysteine proteinases or water as control. After 16 hs at room temperature in the dark, individual wells of the 24 well plates were flushed with 1 ml of distilled water to recover the nematodes from the soil mixtures. These were placed in a 24 well plate and the number of dead/live nematodes scored under microscopic observation.
These in vitro experiments were performed in 24 well plates using sterile soil mixtures to diminish the possibility of biological degradation of the enzyme by microorganisms. […] The number of live nematodes was counted before and after enzyme treatment. […]

Assay [4] relates to Meloidogyne spp. J2s. The assay can be described thus: In vitro mobility of Meloidogyne spp. J2s exposed to plant cysteine proteinases. The class given is cell-based, M. incognita or M. javanica. Conditions: 1 mM E-64, J2s incubated without enzyme. How it is done:
Eggs of M. incognita race 1 from North Carolina State University, USA, and M. javanica from Portugal were collected from the roots of infected tomato plants grown in a glasshouse at 23° C. in a 16:8 h light-dark regime. Eggs were extracted using 1% hypochlorite (NaClO) solution (Hussey and Barker, 1973) or by picking egg masses from the infected roots. M. incognita and M. javanica were both used in the experiments and produced similar results. Juveniles (J2) were hatched from the eggs and egg masses in water. Globodera rostochiensis cysts were washed extensively in distilled water. Hatched J2s were obtained by incubating cysts in distilled water for 4 days followed by exposure to potato root diffusate (PRD).
Approximately 1000 J2s (second juvenile stage) of M. incognita or M. javanica were incubated per well of a 48-well plate with the following active enzyme concentrations (determined by E-64 titration) of papain dissolved in distilled water containing 16 mM L-cysteine (to activate the cysteine proteinase): 1.5 μM, 3 μM, 6.25 μM, 12.5 μM, 25 μM, 50 μM, 75 μM and 100 μM. […] The number of active J2s per well was counted prior to the addition of papain, and then the J2s were incubated in the dark at room temperature for 3 h. The number of mobile J2s per well was counted after 60, 120 and 180 mins. […]

Regarding Abamectin, the “nematicidal effect (reduction of nematode infection)” value in assay [1] stood at 94%. In addition, the larvae development allowed in assay [2] (300 μl of abamectin solution (100 mg/l) to 50 g of infected soil) was 0%. In assay [2] (2000 (so in the source) of abamectin solution (100 mg/l) to 50 g of infected soil), the “larvae allowed to develop” value is recorded as 75%. On to Triton x-100, for which the “effect of blocking agents on nematode mobility” value in assay [3] is given as “slightly affected nematode mobility”.

In the case of `CC(C)C[C@H](NC(=O)[C@H]1O[C@@H]1C(=O)O)C(=O)NCCCCN=C(N)N` (relative stereo) [E-64, L-trans-epoxysuccinyl-leucylamido(4-guanidino)butane, reference compound], the “proportion of active worms on addition of E-64” value in assay [4] is “No change in the proportion of active worms”.
